# Assay results published in patent US6528685B2 (Teva Pharmaceutical Industries, Ltd., priority 1994, dated 2003).
# Counter-ions that a name gives are not always drawn.
# Assays:
# mice [1] = assay: Maximal electroshock (MES) model, mice; details: mice; for MICE MES ED50: intraperitoneal (i.p.) administration
# rats [2] = assay: Neurotoxicity in rats, positional sense test and gait stance test; details: rats p.o.; positional sense test and gait stance test
# Experimental: (§1) Neurotoxicity of the claimed agents was also assessed in mice (i.p. administration) by the rotorod ataxia test and/or in rats (p.o. administration) by positional sense test and gait stance test. […] The term quantitating the neurotoxicity is the medial neurological toxic dose (TD50), was determined in the above tests.
# mice [3] = assay: Neurotoxicity in mice, rotorod ataxia test; details: mice i.p.; rotorod ataxia test
# Experimental: as §1
# rats [4] = assay: Maximal electroshock (MES) model, rats; details: rats, oral (p.o.) administration; median effective dose
# male ICR albino mice = assay: Hypobaric hypoxic model in mice, survival time; format: in vivo, mouse
# Experimental: Desiccator B was disconnected and allowed to equilibrate with room air whilst desiccator A was evacuated to a pressure of 100 mmHg. […] The survival time from the moment of induction of hypoxia to the time of cessation of respiration was recorded for each mouse for a maximum of 15 minutes after which time room air was reintroduced to desiccator B. Survivors were monitored for signs of lethargy or vitality.
# Effect of drug treatment was assessed as the percent of the survival time of the drug treated group with respect to the saline injected or vehicle injected control group. Control groups were run twice, before and after each experimental group and consisted of 12-16 mice in groups of 4 mice. Each experimental group always consisted of 4 mice to ensure a constant residual volume of oxygen in all tests. The effect of each dose of test drug was determined in duplicate i.e. two groups of 4 mice.
# All drugs were administered intra-peritoneally at the dose indicated one hour prior to exposure to hypoxia.
# [5] = 50 mg/kg ip one hour prior to hypoxia
# [6] = 100 mg/kg ip one hour prior to hypoxia
smiles,measurement,setting,value
"NC(=O)CNC1CCCc2ccccc21 (racemic) [Compound 4, (rac)-N-(2-Acetamido)-1-aminotetralin]",MICE MES ED50,mice [1],<100 mg/kg
"CC(C)(C)OC(=O)NCCCC(=O)NC1CCc2ccccc21 (racemic) [Compound 6, (rac)-N-(N-Boc-4-aminobutyryl)-1-aminoindan]",melting point,,118 to 120 °C
"O=CNC1CCc2ccccc21 (racemic) [Compound 8, (rac)-N-Formyl-1-aminoindan]",melting point,,105 °C
"CCCC(=O)NC1CCc2ccccc21 (racemic) [Compound 11, (rac)-N-Butyryl-1-aminoindan]",melting point,,84 to 85 °C
"CN(C)C1CCc2ccccc21 (racemic) [Compound 15, (rac)-N,N-Dimethyl-1-aminoindan.HCl]",RATS TD50,rats [2],>50 mg/kg
same,MICE TD50,mice [3],<100 mg/kg
same,RATS MES 50,rats [4],50 mg/kg
"c1ccc(CNC2CCc3ccccc32)cc1 (racemic) [Compound 16, (rac)-N-Benzyl-1-aminoindan.HCl]",RATS TD50,rats [2],>50 mg/kg
same,MICE MES ED50,mice [1],<50 mg/kg
same,RATS MES 50,rats [4],50 mg/kg
"CC(=O)NC1CCc2cccc(C)c21 (racemic) [Compound 20, (rac)-7-Methyl-N-acetyl-1-aminoindan]",melting point,,166 to 167 °C
"COc1ccc2c(c1)C(N)CC2 (racemic) [Compound 25, (rac)-6-Methoxy-1-aminoindan.HCl]",MICE TD50,mice [3],>100 mg/kg
same,MICE MES ED50,mice [1],<100 mg/kg
same,RATS MES 50,rats [4],50 mg/kg
"COc1ccc2c(c1)C(NC(C)=O)CC2 (racemic) [Compound 26, (rac) 6-methoxy-N-acetyl-1-aminoindan]",melting point,,131 to 132 °C
"Cc1cccc2c1C(N)CC2 (racemic) [Compound 28, (rac)-7-Methyl-1-aminoindan.HCl]",PROTECTION % OF RESPECTIVE CONTROL,male ICR albino mice; [5],361 ± 106%
same,PROTECTION % OF RESPECTIVE CONTROL,male ICR albino mice; [6],941 ± 34%
same,RATS TD50,rats [2],>50 mg/kg
same,MICE TD50,mice [3],<100 mg/kg
same,MICE MES ED50,mice [1],<100 mg/kg
same,RATS MES 50,rats [4],<50 mg/kg
"COc1ccc2c(c1OC)CCC2N (racemic) [Compound 31, (rac)-4,5-Dimethoxy-1-aminoindan.HCl]",RATS TD50,rats [2],>50 mg/kg
same,MICE TD50,mice [3],<100 mg/kg
same,"activity in the MES model in mice, in words",mice [1],showed activity
same,MICE MES ED50,mice [1],<100 mg/kg
"NC1CCc2ccc(O)cc21 (racemic) [Compound 34, (rac)-6-Hydroxy-1-aminoindan.HCl]",MICE TD50,mice [3],>300 mg/kg
same,"activity in the MES model in mice, in words",mice [1],showed activity
same,MICE MES ED50,mice [1],<300 mg/kg
"Cc1ccc2c(c1)CCC2N (racemic) [Compound 38, (rac)-5-Methyl-1-aminoindan.HCl]",RATS TD50,rats [2],>50 mg/kg
same,MICE TD50,mice [3],<100 mg/kg
same,MICE MES ED50,mice [1],<100 mg/kg
same,RATS MES 50,rats [4],50 mg/kg
"C[C@@H]1Cc2ccccc2[C@H]1N (racemic) [Compound 39, (rac)-trans-2-Methyl-1-aminoindan.HCl]",PROTECTION % OF RESPECTIVE CONTROL,male ICR albino mice; [5],600 ± 213%
same,PROTECTION % OF RESPECTIVE CONTROL,male ICR albino mice; [6],798 ± 249%
same,RATS TD50,rats [2],>50 mg/kg
same,MICE TD50,mice [3],<100 mg/kg
same,MICE MES ED50,mice [1],<100 mg/kg
same,RATS MES 50,rats [4],<50 mg/kg
"Cc1cc(C)c2c(c1)C(C)CC2N.Cl (racemic) [Compound 41, (rac)-3,5,7-Trimethyl-1-aminoindan.HCl]",PROTECTION % OF RESPECTIVE CONTROL,male ICR albino mice; [5],187 ± 41%
same,PROTECTION % OF RESPECTIVE CONTROL,male ICR albino mice; [6],644 ± 316%
"NC1CCc2cccc(O)c21 (racemic) [Compound 42, (rac)-7-Hydroxy-1-aminoindan.HCl]",PROTECTION % OF RESPECTIVE CONTROL,male ICR albino mice; [5],179 ± 170%
same,PROTECTION % OF RESPECTIVE CONTROL,male ICR albino mice; [6],228 ± 119%
same,RATS TD50,rats [2],>50 mg/kg
same,RATS MES 50,rats [4],<50 mg/kg
"c1ccc2c(c1)CCC2NC1CCc2ccccc21 (racemic) [Compound 43, (rac)-N,N-Di-(1-indanyl)amine.HCl]",RATS TD50,rats [2],>50 mg/kg
same,MICE TD50,mice [3],<100 mg/kg
same,MICE MES ED50,mice [1],<100 mg/kg
same,RATS MES 50,rats [4],<50 mg/kg
"O=C(NC1CCc2ccccc21)c1ccccc1 (racemic) [Compound 46, (rac)-N-Benzoyl-1-aminoindan]",melting point,,140 to 142 °C
"COc1cccc(C(=O)NC2CCc3ccccc32)c1 (racemic) [Compound 52, (rac)-N-(m-Anisoyl)-1-aminoindan]",melting point,,140 °C
"O=C(NC1CCc2ccccc21)c1ccc(F)cc1 (racemic) [Compound 53, (rac)-N-(4′-Fluorobenzoyl)-1-aminoindan]",melting point,,109 to 110 °C
"Cc1ccc(C(=O)NC2CCc3ccccc32)cc1 (racemic) [Compound 54, (rac)-N-(p-Toluoyl)-1-aminoindan]",melting point,,140 °C
"CC(=O)NC1CCc2ccc(C#N)cc21 (racemic) [Compound 61, (rac)-6-Cyano-N-acetyl-1-aminoindan]",melting point,,175 to 176 °C
"CCOC(=O)c1ccc2c(c1)C(NC(C)=O)CC2 (racemic) [Compound 63, (rac)-6-Ethoxycarbonyl-N-acetyl-1-aminoindan]",melting point,,146 to 147 °C
"CCCN(CCC)S(=O)(=O)c1ccc(C(=O)NC2CCc3ccccc32)cc1 (racemic) [Compound 69, (rac)-N-(4-(di-n-Propylsulfamoyl)benzoyl)-1-aminoindan]",melting point,,124 to 125 °C
"COc1ccc2c(c1OC)CC[C@H]2NC(C)=O [Compound 21, (R)-4,5-Dimethoxy-N-acetyl-1-aminoindan]",melting point,,175 °C
"NC1Cc2ccccc21 (stereo not drawn) [Compound 27, 1-Aminobenzocyclobutene.HCl]",RATS TD50,rats [2],>50 mg/kg
same,MICE TD50,mice [3],>100 mg/kg
same,MICE MES ED50,mice [1],<100 mg/kg
same,RATS MES 50,rats [4],<50 mg/kg
"COc1ccc2c(c1OC)CC[C@@H]2N.Cl [Compound 30, (S)-4,5-Dimethoxy-1-aminoindan.HCl]",PROTECTION % OF RESPECTIVE CONTROL,male ICR albino mice; [5],265 ± 284%
same,PROTECTION % OF RESPECTIVE CONTROL,male ICR albino mice; [6],379 ± 202%
"CCCC(CCC)C(=O)NC1CCc2ccccc21 (stereo not drawn) [Compound 47, N-(2-n-Propylpentanoyl)-1-aminoindan]",melting point,,133 to 134 °C
"CC(=O)NC1CCc2ccc([N+](=O)[O-])cc21 (stereo not drawn) [Compound 58, N-Acetyl-6-nitro-1-aminoindan]",melting point,,179 °C
"O=C(N[C@@H]1CCc2ccccc21)C(F)(F)F [Compound 68, (R)-N-Trifluoroacetyl-1-aminoindan]",melting point,,152 to 153 °C
"O=C(CCCCC(=O)NC1CCc2ccccc21)NC1CCc2ccccc21 (stereo not drawn) [Compound 73, N,N′-Bis-(1-indanyl)adipamide]",melting point,,227 °C
"O=C(CCCCC(=O)N[C@@H]1CCc2ccccc21)N[C@@H]1CCc2ccccc21 [Compound 74, N,N′-Bis-((R)-1-indanyl)adipamide]",melting point,,244 to 247 °C
"O=C(CCC(=O)N[C@@H]1CCc2ccccc21)N[C@@H]1CCc2ccccc21 [Compound 75, N,N′-Bis-((R)-1-indanyl)succinamide]",melting point,,266 to 269 °C
"C#CCN[C@H]1CCc2ccccc21.Cl [G, (S)-N-propargyl-1-aminoindan HCl salt]",RATS MES 50,rats [4],57 mg/kg
"NC1CCc2ccc(F)cc21 (stereo not drawn) [I, 6-fluoro-1-aminoindan]",RATS MES 50,rats [4],<50 mg/kg
"N[C@H]1CCc2ccc(F)cc21 [K, (S)-6-fluoro-1-aminoindan]","activity in the MES model in mice, in words",mice [1],showed activity
"C#CCNC1CCc2ccc(F)cc21 (stereo not drawn) [L, 6-fluoro-N-propargyl-1-aminoindan]","activity in the MES model in mice, in words",mice [1],showed activity
